# Assay results: article PMC10618743 (Cancer Discovery, 2023)
# Columns and labels:
# [1] = system: pAKT (S473) in NCIH1048 cells; assay: pAKT (S473) HTRF; assay type: cell-based; conditions: Homo sapiens, NCI-H1048; NCIH1048, H1047R + K111R; 1 hour; read-out: pAKT HTRF GMean IC50 (95% CI)
# Protocol: (§1) A 384-well phospho-AKT (S473) HTRF (Homogenous Time-Resolve Fluorescence; PerkinElmer, #64AKSPEH) assay was used for target engagement. Each well was seeded with cell numbers indicated in Supplementary Table S3 in a volume of 12.5 μL in complete, phenol red-free media and then treated for 1 hour at 37°C with 5% CO2 before reading on a PHERAstar plate reader.
# [2] = system: pAKT (S473) in GP2D cells; assay: pAKT (S473) HTRF; assay type: cell-based; conditions: Homo sapiens, H1047L, 1 hour, read-out: pAKT HTRF GMean IC50 (95% CI)
# Protocol: as §1
# [3] = system: pAKT (S473) in OAW42 cells; assay: pAKT (S473) HTRF; assay type: cell-based; conditions: Homo sapiens, OAW-42; OAW42, H1047L; 1 hour; read-out: pAKT HTRF GMean IC50 (95% CI)
# Protocol: as §1
# [4] = system: pAKT (S473) in DETROIT562 cells; assay: pAKT (S473) HTRF; assay type: cell-based; conditions: Homo sapiens, Detroit 562; DETROIT562, H1047R; 1 hour; read-out: pAKT HTRF GMean IC50 (95% CI)
# Protocol: as §1
# [5] = system: pAKT (S473) in SKBR3 cells; assay: pAKT (S473) HTRF; assay type: cell-based; conditions: Homo sapiens, SK-BR-3; SKBR3, WT PI3Kα; 1 hour; read-out: pAKT HTRF GMean IC50 (95% CI)
# Protocol: as §1
# [6] = system: pAKT (S473) in CAL33 cells; assay: pAKT (S473) HTRF; assay type: cell-based; conditions: Homo sapiens, CAL-33; CAL33, H1047R; 1 hour; read-out: pAKT HTRF GMean IC50 (95% CI)
# Protocol: as §1
# [7] = system: pAKT (S473) in CAL148 cells; assay: pAKT (S473) HTRF; assay type: cell-based; conditions: Homo sapiens, CAL-148; CAL148, H1047R + D350N; 1 hour; read-out: pAKT HTRF GMean IC50 (95% CI)
# Protocol: as §1
# [8] = system: pAKT (S473) in HCC1954 cells; assay: pAKT (S473) HTRF; assay type: cell-based; conditions: Homo sapiens; HCC1954, H1047R; 1 hour; read-out: pAKT HTRF GMean IC50 (95% CI)
# Protocol: as §1
# [9] = system: pAKT (S473) in EFM19 cells; assay: pAKT (S473) HTRF; assay type: cell-based; conditions: Homo sapiens, EFM-19; EFM19, H1047L; 1 hour; read-out: pAKT HTRF GMean IC50 (95% CI)
# Protocol: as §1
# [10] = system: pAKT (S473) in T47D cells; assay: pAKT (S473) HTRF; assay type: cell-based; conditions: Homo sapiens, 1 h, read-out: pAKT HTRF GMean IC50 (95% CI)
# Protocol: as §1
# Plasma exposure in mice = assay type: in vivo, mouse
# [11] = system: glucose oxidation in tumor and skeletal muscle; assay: [U-13C]-glucose metabolic profiling in CAL-33 tumor-bearing mice; assay type: in vivo, mouse; conditions: alpelisib 50 mg/kg; 30 minutes after [U-13C]-glucose
compound,measurement,setting,value
Cc1nc(NC(=O)N2CCC[C@H]2C(N)=O)sc1-c1ccnc(C(C)(C)C(F)(F)F)c1 [alpelisib],IC50,[1],28 nM
same,IC50,[2],66 nM
same,IC50,[3],82 nM
same,IC50,[4],125 nM
same,IC50,[5],41 nM
same,IC50,[6],71 nM
same,IC50,[7],268 nM
same,IC50,[8],256 nM
same,IC50,[9],43 nM
same,IC50,[10],58 nM
same,mouse exposure over exposure of maximum approved human dose,Plasma exposure in mice; 50 mg/kg q.d. in mice,approximately 2 fold
same,AUC,"Plasma exposure in mice; mouse, plasma, oral, mice, 50 mg/kg q.d.",~75000 ng·h/mL
same,glucose oxidation in skeletal muscle,[11],reductions in glucose oxidation in the skeletal muscle
